The values that follow come from patent publication US9187472B2 (AbbVie Inc., priority 2012, dated 2015).

Assay [1] deals with NAMPT (human, recombinant, C-terminally His-tagged) (Homo sapiens, UniProt P43490). As to the kind of experiment: Time-Resolved Fluorescence Resonance Energy Transfer (TR-FRET) Binding Assay of NAMPT. Particulars: without substrates; 6.8 nM NAMPT, 200 nM probe, 3 hours equilibration. Summed up: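 Probe displacement by compound was measured with 6.8 nM NAMPT, 200 nM Oregon Green 488-conjugated nicotinamide-competitive inhibitor probe and 1 nM Tb-anti-His antibody in 50 mM HEPES pH 7.5, 100 mM NaCl, 10 mM MgCl2, 1 mM DTT, 1% glycerol, 2% DMSO (final). After 3 h at room temperature, TR-FRET was read; IC50 from four-parameter logistic fit.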
NAMPT (human, recombinant, C-terminally His-tagged), sequence (P43490 whole entry): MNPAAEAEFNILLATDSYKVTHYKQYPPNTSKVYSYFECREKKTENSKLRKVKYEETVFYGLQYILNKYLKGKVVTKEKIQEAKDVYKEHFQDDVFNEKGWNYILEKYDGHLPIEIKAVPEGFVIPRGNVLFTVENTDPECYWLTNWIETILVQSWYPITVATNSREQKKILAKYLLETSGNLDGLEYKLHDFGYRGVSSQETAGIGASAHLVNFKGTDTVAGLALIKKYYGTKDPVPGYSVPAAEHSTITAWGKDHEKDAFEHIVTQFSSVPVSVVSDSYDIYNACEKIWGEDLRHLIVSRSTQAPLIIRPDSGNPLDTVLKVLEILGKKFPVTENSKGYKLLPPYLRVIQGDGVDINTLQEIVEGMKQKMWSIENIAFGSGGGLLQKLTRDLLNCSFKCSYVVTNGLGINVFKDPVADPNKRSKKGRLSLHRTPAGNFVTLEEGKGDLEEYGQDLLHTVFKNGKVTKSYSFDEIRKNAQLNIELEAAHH
(In general: TR-FRET usually uses a lanthanide donor and a delayed reading to cut background.)

The next assay relates to PC3 cells. Description: NAMPT Cell Proliferation Assay. Format: cell-based. The settings on record: Homo sapiens, PC-3, 120 h, 5 days incubation, cell viability by Cell Titer Glo. A digest of the protocol: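 Cell Titer Glo viability after 5-day exposure (37° C, 5% CO2); PC3, 500 cells/well, RPMI + 10% heat-inactivated FBS, overnight attachment before dosing. Dose range 10 μM to 1×10^−5 μM, 10-fold steps. IC50 = sigmoidal fit of % inhibition.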
A general note: ATP-based viability assays read luminescence as a measure of living cells.

The target in another assay is NAMPT (Homo sapiens, UniProt P43490). As to the kind of experiment: TR-FRET Binding Assay of NAMPT with PRPP. Particulars: with 200 μM PRPP and 2.5 mM ATP; 2 nM NAMPT, 2 nM probe, 16 hours equilibration. A digest of the protocol: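 Run in the presence of substrates (200 μM PRPP, 2.5 mM ATP) with final 2 nM NAMPT, 2 nM probe, 1 nM Tb-anti-His antibody and 2% DMSO. Mixtures equilibrated 16 h before TR-FRET measurement so test compounds could be enzymatically modified.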
NAMPT, sequence (P43490 whole entry): as above

As usually defined, the IC50 is the point on the concentration scale where inhibition reaches its midpoint.

Turning to `CC1(C(=O)N2CC(c3ccc(C(=O)NCc4ccn5ccnc5c4)cc3)C2)CC1` [Example 632, N-(imidazo[1,2-a]pyridin-7-ylmethyl)-4-{1-[(1-methylcyclopropyl)carbonyl]azetidin-3-yl}benzamide], the values for the IC50 (in assay [1]; in the assay with PC3 cells; on NAMPT) were 270 nM, 32.3 nM and 0.698 nM, respectively.

For `CC(C)(C)C(=O)N1CC(c2ccc(C(=O)NCc3ccn4ccnc4c3)cc2)C1` [Example 633, 4-[1-(2,2-dimethylpropanoyl)azetidin-3-yl]-N-(imidazo[1,2-a]pyridin-7-ylmethyl)benzamide], the IC50 was 335 nM in assay [1], 12 nM in the assay on PC3 cells and 0.707 nM on NAMPT.

Consider `O=C(NCc1ccn2ccnc2c1)c1ccc(C2CN(C(=O)c3cncs3)C2)cc1` [Example 634, N-(imidazo[1,2-a]pyridin-7-ylmethyl)-4-[1-(1,3-thiazol-5-ylcarbonyl)azetidin-3-yl]benzamide], for which the IC50 in assay [1] was 353 nM; in the assay on PC3 cells, 83.5 nM; on NAMPT, 0.648 nM.

For `O=C(NCc1ccn2ccnc2c1)c1ccc(C2CN(C(=O)c3cnccn3)C2)cc1` [Example 635, N-(imidazo[1,2-a]pyridin-7-ylmethyl)-4-[1-(pyrazin-2-ylcarbonyl)azetidin-3-yl]benzamide], the values for the IC50 (in assay [1]; in the assay with PC3 cells; at NAMPT) were 462 nM, 50 nM and 0.975 nM, respectively.

On to `COc1ccccc1C(=O)N1CC(c2ccc(C(=O)NCc3ccn4ccnc4c3)cc2)C1` [Example 636, N-(imidazo[1,2-a]pyridin-7-ylmethyl)-4-[1-(2-methoxybenzoyl)azetidin-3-yl]benzamide], for which the IC50 in assay [1] amounted to 238 nM; in the assay with PC3 cells, 18.4 nM; on NAMPT, 0.915 nM.

Turning to `O=C(NCc1ccn2ccnc2c1)c1ccc(C2CN(C(=O)c3cscn3)C2)cc1` [Example 637, N-(imidazo[1,2-a]pyridin-7-ylmethyl)-4-[1-(1,3-thiazol-4-ylcarbonyl)azetidin-3-yl]benzamide], the values for the IC50 (in assay [1]; in the assay with PC3 cells; on NAMPT) were 360 nM, 81.1 nM and 0.421 nM, respectively.

In the case of `O=C(NCc1ccn2ccnc2c1)c1ccc(C2CN(C(=O)c3ccccc3F)C2)cc1` [Example 638, 4-[1-(2-fluorobenzoyl)azetidin-3-yl]-N-(imidazo[1,2-a]pyridin-7-ylmethyl)benzamide], the IC50 in assay [1] stood at 16.6 nM; in the assay on PC3 cells it was 2.61 nM; on NAMPT it was 0.545 nM.

In the case of `O=C(NCc1ccn2ccnc2c1)c1ccc(C2CN(C(=O)c3ccco3)C2)cc1` [Example 639, 4-[1-(furan-2-ylcarbonyl)azetidin-3-yl]-N-(imidazo[1,2-a]pyridin-7-ylmethyl)benzamide], the IC50 in assay [1] is 215 nM; in the assay with PC3 cells, 58.1 nM; at NAMPT, 0.713 nM.

`O=C(NCc1ccn2ccnc2c1)c1ccc(C2CN(C(=O)c3cccc(F)c3)C2)cc1` [Example 640, 4-[1-(3-fluorobenzoyl)azetidin-3-yl]-N-(imidazo[1,2-a]pyridin-7-ylmethyl)benzamide]: the IC50 worked out at 170 nM in assay [1], 50 nM with PC3 cells and 0.817 nM on NAMPT.

On to `O=C(NCc1ccn2ccnc2c1)c1ccc(C2CN(C(=O)c3ccc(F)cc3F)C2)cc1` [Example 641, 4-[1-(2,4-difluorobenzoyl)azetidin-3-yl]-N-(imidazo[1,2-a]pyridin-7-ylmethyl)benzamide], for which the IC50 in assay [1] was determined as 74.8 nM; with PC3 cells, 9.99 nM; on NAMPT it was 0.684 nM.

As for `Cn1ccc(C(=O)N2CC(c3ccc(C(=O)NCc4ccn5ccnc5c4)cc3)C2)n1` [Example 642, N-(imidazo[1,2-a]pyridin-7-ylmethyl)-4-{1-[(1-methyl-1H-pyrazol-3-yl)carbonyl]azetidin-3-yl}benzamide], the IC50 in assay [1] amounted to 454 nM; in the assay with PC3 cells, 94.9 nM; on NAMPT, 0.532 nM.

`O=C(NCc1ccn2ccnc2c1)c1ccc(C2CN(C(=O)c3ccccc3Cl)C2)cc1` [Example 643, 4-[1-(2-chlorobenzoyl)azetidin-3-yl]-N-(imidazo[1,2-a]pyridin-7-ylmethyl)benzamide]: the IC50 in assay [1] came out at 28 nM; in the assay with PC3 cells it was 6.9 nM; at NAMPT, 0.552 nM.

As for `Cc1ccccc1C(=O)N1CC(c2ccc(C(=O)NCc3ccn4ccnc4c3)cc2)C1` [Example 644, N-(imidazo[1,2-a]pyridin-7-ylmethyl)-4-[1-(2-methylbenzoyl)azetidin-3-yl]benzamide], the results for the IC50 (in assay [1]; in the assay on PC3 cells; on NAMPT) were 81.7 nM, 4.08 nM and 0.69 nM, respectively.

On to `O=C(NCc1ccn2ccnc2c1)c1ccc(C2CN(C(=O)c3ccc(Cl)cc3)C2)cc1` [Example 645, 4-[1-(4-chlorobenzoyl)azetidin-3-yl]-N-(imidazo[1,2-a]pyridin-7-ylmethyl)benzamide], for which the values for the IC50 (in assay [1]; in the assay on PC3 cells; on NAMPT) were 91 nM, 34 nM and 0.474 nM, respectively.

`O=C(NCc1ccn2ccnc2c1)c1ccc(C2CN(C(=O)c3cccc(Cl)c3)C2)cc1` [Example 646, 4-[1-(3-chlorobenzoyl)azetidin-3-yl]-N-(imidazo[1,2-a]pyridin-7-ylmethyl)benzamide]: the IC50 was 195 nM in assay [1], 130 nM in the assay on PC3 cells and 0.51 nM at NAMPT.

Turning to `CCC(C)(C)C(=O)N1CC(c2ccc(C(=O)NCc3ccn4ccnc4c3)cc2)C1` [Example 647, 4-[1-(2,2-dimethylbutanoyl)azetidin-3-yl]-N-(imidazo[1,2-a]pyridin-7-ylmethyl)benzamide], the values for the IC50 (in assay [1]; in the assay with PC3 cells; at NAMPT) were 173 nM, 6.99 nM and 0.672 nM, respectively.

Turning to `O=C(NCc1ccn2ccnc2c1)c1ccc(C2CN(C(=O)c3cc(F)cc(F)c3)C2)cc1` [Example 648, 4-[1-(3,5-difluorobenzoyl)azetidin-3-yl]-N-(imidazo[1,2-a]pyridin-7-ylmethyl)benzamide], the IC50 in assay [1] is 661 nM; in the assay with PC3 cells it was 203 nM; on NAMPT it was 1.06 nM.

Turning to `O=C(NCc1ccn2ccnc2c1)c1ccc(C2CN(C(=O)c3ccc(F)cc3)C2)cc1` [Example 649, 4-[1-(4-fluorobenzoyl)azetidin-3-yl]-N-(imidazo[1,2-a]pyridin-7-ylmethyl)benzamide], the IC50 in assay [1] amounted to 203 nM; in the assay with PC3 cells, 70.6 nM; at NAMPT, 0.749 nM.

In the case of `Cc1ccc(C(=O)N2CC(c3ccc(C(=O)NCc4ccn5ccnc5c4)cc3)C2)cc1` [Example 650, N-(imidazo[1,2-a]pyridin-7-ylmethyl)-4-[1-(4-methylbenzoyl)azetidin-3-yl]benzamide], the values for the IC50 (in assay [1]; in the assay with PC3 cells; on NAMPT) were 153 nM, 58.3 nM and 1.11 nM, respectively.

Consider `CC(C)CC(=O)N1CC(c2ccc(C(=O)NCc3ccn4ccnc4c3)cc2)C1` [Example 651, N-(imidazo[1,2-a]pyridin-7-ylmethyl)-4-[1-(3-methylbutanoyl)azetidin-3-yl]benzamide], for which the IC50 was 276 nM in assay [1], 64.8 nM with PC3 cells and 0.715 nM on NAMPT.

As for `CC(C)(C)CC(=O)N1CC(c2ccc(C(=O)NCc3ccn4ccnc4c3)cc2)C1` [Example 652, 4-[1-(3,3-dimethylbutanoyl)azetidin-3-yl]-N-(imidazo[1,2-a]pyridin-7-ylmethyl)benzamide], the IC50 stood at 535 nM in assay [1], 34.6 nM in the assay on PC3 cells and 1.16 nM on NAMPT.

As for `N#Cc1cccc(C(=O)N2CC(c3ccc(C(=O)NCc4ccn5ccnc5c4)cc3)C2)c1` [Example 653, 4-[1-(3-cyanobenzoyl)azetidin-3-yl]-N-(imidazo[1,2-a]pyridin-7-ylmethyl)benzamide], the IC50 is 831 nM in assay [1], 715 nM with PC3 cells and 0.893 nM on NAMPT.

As to `COc1cccc(C(=O)N2CC(c3ccc(C(=O)NCc4ccn5ccnc5c4)cc3)C2)c1` [Example 654, N-(imidazo[1,2-a]pyridin-7-ylmethyl)-4-[1-(3-methoxybenzoyl)azetidin-3-yl]benzamide], the IC50 in assay [1] stood at 213 nM; in the assay on PC3 cells, 67.9 nM; at NAMPT, 0.945 nM.

Regarding `COc1ccc(C(=O)N2CC(c3ccc(C(=O)NCc4ccn5ccnc5c4)cc3)C2)cc1` [Example 655, N-(imidazo[1,2-a]pyridin-7-ylmethyl)-4-[1-(4-methoxybenzoyl)azetidin-3-yl]benzamide], the results for the IC50 (in assay [1]; in the assay on PC3 cells; at NAMPT) were 230 nM, 68.8 nM and 0.998 nM, respectively.

Consider `Cn1cccc1C(=O)N1CC(c2ccc(C(=O)NCc3ccn4ccnc4c3)cc2)C1` [Example 656, N-(imidazo[1,2-a]pyridin-7-ylmethyl)-4-{1-[(1-methyl-1H-pyrrol-2-yl)carbonyl]azetidin-3-yl}benzamide], for which the IC50 in assay [1] worked out at 218 nM; in the assay on PC3 cells it was 38.5 nM; on NAMPT it was 0.738 nM.

With `O=C(NCc1ccn2ccnc2c1)c1ccc(C2CN(C(=O)CC3CCCCC3)C2)cc1` [Example 657, 4-[1-(cyclohexylacetyl)azetidin-3-yl]-N-(imidazo[1,2-a]pyridin-7-ylmethyl)benzamide], the IC50 in assay [1] worked out at 232 nM; with PC3 cells it was 36 nM; on NAMPT, 0.589 nM.
